{"source": "patent US9598399B2", "about": "“Compound suitable for detection of mitochondrial complex-1” (HAMAMATSU PHOTONICS K.K., priority 2012, dated 2017)", "key": {"[1]": {"system": "site of ischemic disorder in the brain", "test": "PET analysis of rat cerebral infarction (PIT) model with blocked middle cerebral artery", "assay_type": "in vivo", "conditions": "for accumulation of probe in site of ischemic disorder: Normal, Day-1, Day-7, PET 60 minutes", "experimental": "The rat was subjected to anesthesia induction using 4% halothane (30% O2, 70% room air), and during the surgery, the halothane concentration was maintained at 1.5% to 2%. The skin was incised along the left eye cavity margin under a surgical microscope, and an elliptical window (hole) having a size of about 3 mm was cut open in the lower cranium using a dental drill so that the left middle cerebral artery could be seen under the dura mater. Photosensitizer Rose Bengal (20 mg/kg) was administered through the tail vein of the rat, the middle cerebral artery was irradiated with green light having a wavelength of 540 nm for 10 minutes, and thus cerebral infarction was developed in the rat.\nIn the respective rats before the onset of cerebral infarction (Normal), 1 day after the onset of cerebral infarction (Day-1), and 7 days after the onset of cerebral infarction (Day-7), glucose metabolism (using [^18F]FDG as a probe) and the activity of mitochondrial Complex-1 (using [^18F]BMS or [^18F]BCPP-EF as a probe) in the sites of ischemic disorder in the brain were monitored by the PET method. Specifically, each of the probes was bolus administered in an amount of 6 to 8 MBq/animal through the tail vein of the rat, and the analysis was carried out for 60 minutes. During the analysis, the rat was inactivated by continuously administering chloral hydrate (100 mg/kg/hr) through the tail vein of the rat."}, "[2]": {"test": "Oil-solubility (log P)", "assay_type": "physicochemical"}, "[3]": {"system": "mitochondrial Complex-1", "test": "In vitro autoradiography of rat brain slices and in vivo PET of living rat brain (background evaluation of [18F]BMS)", "source_text": "On the other hand, it has been reported that [^18F]BMS-747158-02 (2-tert-butyl-4-chloro-5-[4-(2-fluoroethoxymethyl)-benzyloxy]-2H-pyridazin-3-one, [^18F]BMS) serves as a PET probe that recognizes mitochondrial Complex-1 (hereinafter, may be referred to as “MC-1”), and this compound is used in a functional evaluation of the brain or the heart (Patent Literature 1 and Non-Patent Literature 1)."}, "[4]": {"system": "mitochondrial Complex-1", "test": "Autoradiography using living rat brain slices, inhibition of probe binding by rotenone", "conditions": "for binding inhibitory effect by rotenone on probe binding: rotenone 2-20000 nM, probe 1 MBq/ml, FIGS. 3 and 4", "experimental": "A rat was anesthetized with chloral hydrate (400 mg/kg; I.P.) and decapitated. Thereafter, the brain was immediately sampled and cooled sufficiently, and the cooled brain was immersed in ACSF (artificial cerebrospinal fluid) in a sherbet state. A necessary block of the obtained brain was cut and adhered to a fixing platform of a vibration microtome HM650V (Thermo Fisher Scientific, Inc., Waltham, USA). Thereafter, brain slices having a thickness of 300 μm were produced. The cut brain slices were immersed in 24 ml of ACSF for 30 minutes under bubbling with O2, and thus the activities of cells were calmed. Thereafter, 20 μL of Vehicle or Rotenone (adjusted to concentrations of 2 nM, 20 nM, 200 nM, and 20000 nM in respective beakers) was added to ACSF, and the mixture was bubbled for 30 minutes. Furthermore, 1 MBq/ml of [^18F]BMS or [^18F]BCPP-EF was added to the ACSF, and bubbling was continued for 30 minutes. After completion of the bubbling, the brain slices were taken out and transferred to 100 ml of fresh ACSF. Subsequently, excess RI was washed away by bubbling the ACSF for another 30 minutes. Thereafter, the brain slices were arranged in a row on an OHP sheet, and an image thereof was captured with a scanner (Epson: GT-600). Subsequently, the OHP sheet having the brain slices arranged in a row thereon was placed on an imaging plate (ST-VI, Fujifilm Corp., Tokyo) having sensitivity to radiation, and the OHP sheet was left to stand for about one hour in the dark (contact). The imaging plate was subjected to detection with a Fluoro Image Analyzer, FLA-7000 (Fujifilm Corp., Tokyo)."}, "[5]": {"system": "mitochondrial Complex-1", "test": "PET analysis of rotenone-administered rat (brain and heart)", "assay_type": "in vivo", "conditions": "rat cerebellum, cerebral cortex, corpus striatum and heart; rotenone 0.1 mg/kg/h i.v.; FIGS. 5 and 6", "experimental": "A rat was anesthetized with chloral hydrate (400 mg/kg; I.P.) and was immobilized on a bed for measurement. Immediately thereafter, rotenone (0.1 mg/kg/h) or a vehicle was administered through the tail vein of the rat. In order to identify the position of the brain during the administration, an analysis was carried out using Clairvivo-CT (Shimadzu Corp.). Thereafter, the bed for measurement was moved to Clairvivo PET. After the administration of rotenone (0.1 mg/kg/h) or the vehicle was completed, [^18F]BMS or [^18F]BCPP-EF was immediately bolus administered in an amount of about 8 MBq/animal through the tail vein of the rat, and the measurement was carried out for 60 minutes. During the measurement, chloral hydrate (100 mg/kg/hr) was continuously administered through the tail vein of the rat, and thereby the rat was inactivated."}, "[6]": {"system": "mitochondrial Complex-1", "test": "PET experiment on inhibition of binding to mitochondrial Complex-1 by rotenone administration in monkey brain", "assay_type": "in vivo", "conditions": "compared with [18F]BMS", "experimental": "(§1) Cephalic vein or saphenous vein was secured as the route of intravenous administration to the test animal, and femoral artery or posterior tibial artery was secured as the route for collecting arterial blood. First, the amount of radioactivity of [^18F]BMS, [^18F]BCPP-EF or [^11C]BCPP-EM was measured. As radioactive agents, [^18F]BMS and [^18F]BCPP-EF were administered through an indwelling needle indwelled in a test animal in an amount of administration of 300 to 500 MBq, and [^11C]BCPP-EM was administered in an amount of administration of 800 to 1200 MBq, such that the entire amount of the radioactive agent was intravenously administered over about 30 seconds. Simultaneously with the initiation of administration of the radioactive agent, measurement of emission (6 frames of 10 seconds, 6 frames of 30 seconds, 12 frames of 1 minute, 25 frames of 3 minutes, and 6 frames of 5 minutes; 55 frames for 121 minutes in total) was initiated.\nIn the experiment on the inhibition of PET probe binding by rotenone administration in the brain of a monkey, rotenone was administered to the test animal by intravenous injection in an amount of 0.1 mg/kg/hr. Subsequently, [^18F]BMS, [^18F]BCPP-EF or [^11C]BCPP-EM was administered as a probe, and a PET analysis was carried out."}, "[7]": {"system": "mitochondrial Complex-1", "test": "PET analysis of intracerebral activity of mitochondrial Complex-1 in young and aged monkey", "assay_type": "in vivo", "conditions": "young monkey (5 years old) versus aged monkey (22 years old), FIG. 10", "experimental": "as §1\nThe results of a PET analysis obtained from a young monkey (5 years old) and an aged monkey (22 years old) are presented in FIG. 10. [^18F]BCPP-EF was used as the PET probe."}, "[8]": {"system": "mitochondrial Complex-1", "test": "PET analysis of intracerebral activity of mitochondrial Complex-1 in Parkinson's disease model monkey", "assay_type": "in vivo, Macaca fascicularis", "conditions": "Parkinson's disease (MPTP) model monkey versus normal monkey, FIG. 11", "experimental": "as §1, with “Simultaneously with the initiation of administration of the radioactive agent, measurement of emission (6 frames of 10 seconds, 6 frames of 30 seconds, 12 frames of 1 minute, 25 frames of 3 minutes, and 6 frames of 5 minutes; 55 frames for 121 minutes in total) was initiated.” left out\nA comparison of the intracerebral activity of mitochondrial Complex-1 was made between a normal monkey and a Parkinson's disease model monkey by a PET analysis. […] The degree of motility disturbance in the limbs was evaluated by observing the way that the Macaca fascicularis monkey picked up the feed, and also, by measuring the decrease in the sites of dopamine reabsorption using a PET analysis, it was finally confirmed that the Macaca fascicularis monkey had the condition of Parkinson's disease."}}}
{"smiles": "OC[C@H]1OC(O)[C@H]([18F])[C@@H](O)[C@@H]1O", "note": "(stereo partly shown) [[^18F]FDG, ^18F-fluorodeoxyglucose]", "values": [{"measurement": "accumulation of probe in site of ischemic injury of the brain", "setting": "[1]; cerebral infarction model rat, PET, background statement", "value": "accumulation of [^18F]FDG is increased"}, {"measurement": "accumulation of probe in site of ischemic disorder", "setting": "[1]; rat PIT model, FIG. 7", "value": "accumulation of [^18F]FDG increased in the site of ischemic disorder"}]}
{"smiles": "CC(C)(C)n1ncc(OCc2ccc(COCCF)cc2)c(Cl)c1=O", "note": "[[^18F]BMS, 2-tert-butyl-4-chloro-5-[4-(2-fluoroethoxymethyl)-benzyloxy]-2H-pyridazin-3-one]", "values": [{"measurement": "logP", "setting": "[2]", "value": 1.42}, {"measurement": "non-specific binding capacity", "setting": "[3]; rat brain", "value": "high non-specific binding capacity"}, {"measurement": "inhibitory effect in inhibition experiment using rotenone", "setting": "[3]; rotenone, inhibitory drug specific to Complex-1", "value": "an inhibitory effect cannot be sufficiently checked"}, {"measurement": "accumulation of probe in site of ischemic disorder", "setting": "[1]; rat PIT model, FIG. 7", "value": "no accumulation of the probe was observed in the site of ischemic disorder"}]}
{"smiles": "CC(C)(C)n1ncc(OCc2ccc(OCCCC[18F])nc2)c(Cl)c1=O", "note": "[[^18F]BCPP-BF]", "values": [{"measurement": "binding inhibitory effect by rotenone on probe binding", "setting": "[4]", "value": "affected by the binding inhibitory effect of rotenone"}]}
{"smiles": "CC(C)(C)n1ncc(OCc2ccc(OCCOCC[18F])nc2)c(Cl)c1=O", "note": "[[^18F]BCPP-EF]", "values": [{"measurement": "uptake quantity of probe after administration of rotenone", "setting": "[5]", "value": "further reduced by the administration of rotenone than that of [^18F]BMS"}, {"measurement": "specificity to mitochondrial Complex-1", "setting": "[6]", "value": "higher specificity to mitochondrial Complex-1 than [^18F]BMS"}, {"measurement": "binding inhibitory effect of rotenone on probe binding", "setting": "[6]; rotenone 0.1 mg/kg/hr i.v., FIGS. 8 and 9", "value": "more likely to be affected by the binding inhibitory effect of rotenone"}, {"measurement": "specificity to mitochondrial Complex-1", "setting": "[4]; compared with [18F]BMS", "value": "higher specificity to mitochondrial Complex-1 than [^18F]BMS"}, {"measurement": "binding inhibitory effect by rotenone on probe binding", "setting": "[4]", "value": "more likely to be affected by the binding inhibitory effect by rotenone than [^18F]BMS"}, {"measurement": "amount of PET probe accumulated in the brain", "setting": "[7]", "value": "a larger amount of the PET probe was accumulated in the brain in the young monkey than in the aged monkey"}, {"measurement": "amount of PET probe accumulating in the brain", "setting": "[8]", "value": "smaller in the Parkinson's disease model monkey, compared with the normal monkey"}, {"measurement": "accumulation of probe in site of ischemic disorder", "setting": "[1]; rat PIT model, FIG. 7", "value": "no accumulation of the probe was observed in the site of ischemic disorder"}, {"measurement": "degree of accumulation of probe, site of ischemic disorder versus normal site", "setting": "[1]; rat PIT model, compared with [18F]BMS, FIG. 7", "value": "clearly different between a site of ischemic disorder and a normal site"}]}
